Here are results for 24 compounds from patent publication US5043340A, “Derivatives of 4-desacetyl VLB C-3 carboxhydrazide” (Eli Lilly and Company, priority 1990, dated 1991).

Where a name gives a salt, the structure may show the parent alone. Read-outs that look alike come from different tables or passages of the source.

One series can be described thus: pKa. The conditions noted are these: for pKa (first value) / pKa (third value) / pKa (second value): 66% DMF. Type of series: physicochemical.
The test system of series [1] is human leukemic cells (CCRF-CEM cell line). The series is described as follows: CCRF-CEM Cytotoxicity Assay (72 h, Coulter particle counter). Format: cell-based. The conditions noted are these: 37° C., read-out: IC50 (concentration giving 50% growth inhibition). The procedure:
The CEM cells were grown in RPMI 1640 media (MA Bioproducts) at 37° C. in humidified atmospheric conditions of 95% air and 5% CO2. The cells were grown in static suspension and maintained in log growth phase at a concentration of 3-7×10^5 cells/ml. The cells were dispersed in wells at a concentration of 4.8×10^4 /well. The drug was dissolved in dimethyl sulfoxide and was added at different dilutions to the cluster plates (wells). The cluster plates were incubated at 37° C. for 72 hours. After 72 hours the wells were read using a ZBI Coulter particle counter. Table 3 below gives the results of such testing of several compounds represented by Formula I above. In the table, Column 1 gives the name of the compound and Column 2 gives the IC50 (concentration giving 50% growth inhibition) in μg/ml.

The test system of series [2] is human lung adenocarcinoma cells (P3/UCLA cell line). The series is described as follows: P3/UCLA - GIEMSA ASSAY (5 days). Type of series: cell-based. The conditions noted are these: 120 h, 37° C., free compound, read-out: IC50 (concentration giving 50% growth inhibition).
Series [3] deals with P3/UCLA lung adenocarcinoma xenografts. The series is described as follows: in vivo test against xenografts of P3/UCLA lung adenocarcinoma in female nude mice. The conditions noted are these: days 2, 5 and 8, 28-day results. As for the experimental part:
The compounds were tested in vivo against xenografts of P3/UCLA lung adenocarcinoma in female nude mice. The test was begun by implanting each mouse with 10^7 P3/UCLA tumor cells, subcutaneously. On each of days 2, 5, and 8 after implantation, each mouse was injected with a conjugate or a compound in physiological buffered saline. Control mice were injected with saline only. The doses of conjugate or of vinca intermediate (based on vinca hydrazide content) are indicated below. The size of the tumors induced by implantation was measured on days 14, 21, and 28 after implantation. Each treatment group consisted of five mice.

Series [4] deals with experimental malignancies. The conditions noted are these: in vivo; cited from earlier work.
Setting [5] is: 66% dmf, read-out: pKa (second value).
Setting [6] is: 66% dmf, read-out: pKa (first value).
[7] abbreviates: 66% dmf, read-out: pKa (third value).
Setting [8] is: solvent not given, read-out: pKa (first value).

The term pKa denotes the negative logarithm of the acid dissociation constant. `CCC1(O)CC2CN(CCc3c([nH]c4ccccc34)C(C(=O)OC)(c3cc4c(cc3OC)N(C)C3C(O)(C(=O)NN=C(C)CCCCC(=O)O)C(O)C5(CC)C=CCN6CCC43C65)C2)C1` (stereo not shown) [Example 4, 4-Desacetyl VLB C-3 N^2-(5-carboxy-1-methylpentylidene)carboxhydrazide]: in the series “pKa”, the “pKa (first value)” value stood at 5.3 and the “pKa (third value)” value amounted to 8.1. Also, the pKa in the series “pKa” (setting [5]) turned out to be 7.

For `CCC1(O)CC2CN(CCc3c([nH]c4ccccc34)C(C(=O)OC)(c3cc4c(cc3OC)N(C)C3C(O)(C(=O)NN=C(C)CCCC(=O)O)C(O)C5(CC)C=CCN6CCC43C65)C2)C1` (stereo not shown) [Example 2, 4-Desacetyl VLB C-3 N^2-(4-carboxy-1-methylbutylidene)carboxhydrazide], in “pKa”, the “pKa (first value)” value is on record as 5.1, the “pKa (second value)” value was determined as 6.6 and the “pKa (third value)” value was 7.7.

The term % Inhibition denotes the change of the read-out against control, counted positive when it falls. Read a low % Inhibition as little suppression. For `CCC1(O)CC2CN(CCc3c([nH]c4ccccc34)C(C(=O)OC)(c3cc4c(cc3OC)N(C)C3C(O)(C(=O)NN=C(C)CCCCC(=O)NCCC(=O)O)C(O)C5(CC)C=CCN6CCC43C65)C2)C1` (stereo not shown) [Example 9, 4-Desacetyl VLB C-3 N^2-(6-[(2-carboxyethyl)amino]-1-methyl-6-oxohexylidene)carboxhydrazide sulfate salt], the figures for the IC50 in series [1] and in series [2] were 0.068 mg/L and 0.043 mg/L, respectively. Also, the “% Inhibition” value is on record as 43% in series [3] (1.00 mg/kg (based on vinca hydrazide content)) and 35% in series [3] (2.00 mg/kg (based on vinca hydrazide content)).

Turning to `CCC1(O)CC2CN(CCc3c([nH]c4ccccc34)C(C(=O)OC)(c3cc4c(cc3OC)N(C)C3C(O)(C(=O)NN=C(C)CCCCC(=O)NCCC(=O)O)C(O)C5(CC)C=CCN6CCC43C65)C2)C1` (stereo not shown) [Example 8, 4-Desacetyl VLB C-3 N^2-(6-[(2-carboxyethyl)amino]-1-methyl-6-oxohexylidene)carboxhydrazide], the pKa in the series “pKa” (setting [6]) was determined as 5; in the series “pKa” (setting [5]), 6.2; in the series “pKa” (setting [7]), 7.8.

For `CCC1(O)CC2CN(CCc3c([nH]c4ccccc34)C(C(=O)OC)(c3cc4c(cc3OC)N(C)C3C(O)(C(=O)NNC(C)CCCCC(=O)NCCC(=O)OC)C(O)C5(CC)C=CCN6CCC43C65)C2)C1` (stereo not shown) [Example 30, 4-Desacetyl VLB C-3 N^2-(6-[(3-methoxy-3-oxopropyl)amino]-1-methyl-6-oxohexyl)carboxhydrazide], the pKa in the series “pKa” (setting [8]) worked out at 5.4; in “pKa” (solvent not given, read-out: pKa (second value)), 7.5.

As for `CCC1(O)CC2CN(CCc3c([nH]c4ccccc34)C(C(=O)OC)(c3cc4c(cc3OC)N(C)C3C(O)(C(=O)NN=C(C)CCCCC(=O)O)C(O)C5(CC)C=CCN6CCC43C65)C2)C1` (stereo not shown) [Example 5, 4-Desacetyl VLB C-3 N^2-(5-carboxy-1-methylpentylidene)carboxhydrazidesulfate salt], the IC50 in series [1] was 0.2 mg/L.

For leurosidine, the “found active in the treatment of experimental malignancies in animals” value (“found active in the treatment” below) in series [4] is listed as “active”.

For `CCC1(O)CN2CCc3c([nH]c4ccccc34)C(C(=O)OC)(c3cc4c(cc3OC)N(C)C3C(O)(C(=O)OC)CC5(CC)C=CCN6CCC43C65)CC(C2)C1O` (stereo not shown) [4-desacetoxy-3'-hydroxyvinblastine], the “found active in the treatment” value in series [4] is “active”.

As to `CCC1CC2CN(CCc3c([nH]c4ccccc34)C(C(=O)OC)(c3cc4c(cc3OC)N(C)C3C(O)(C(=O)OC)C(OC(C)=O)C5(CC)C=CCN6CCC43C65)C2)C1` (stereo not shown) [deoxy VLB "A"], the “found active in the treatment” value in series [4] is listed as “active”.

For the compound `CCC1(O)CN2CCc3c([nH]c4ccccc34)C(C(=O)OC)(c3cc4c(cc3OC)N(C)C3C(O)(C(=O)OC)C(OC(C)=O)C5(CC)C=CCN6CCC43C65)CC(C2)C1O` (stereo not shown) [vincadioline], the “found active in the treatment” value in series [4] is listed as “active”.

Regarding `CC[C@]1(O)C[C@@H]2CN(CCc3c([nH]c4ccccc34)[C@@](C(=O)OC)(c3cc4c(cc3OC)N(C)[C@H]3[C@@](O)(C(=O)OC)[C@H](OC(C)=O)[C@]5(CC)C=CCN6CC[C@]43[C@@H]65)C2)C1` [VLB, vincaleukoblastine], the “found active in the treatment” value in series [4] was “active”.

On to `CC[C@]12CN3CCc4c([nH]c5ccccc45)[C@@](C(=O)OC)(c4cc5c(cc4OC)N(C=O)[C@H]4[C@@](O)(C(=O)OC)[C@H](OC(C)=O)[C@]6(CC)C=CCN7CC[C@]54[C@@H]76)C[C@@H](C3)[C@H]1O2` [leuroformine], for which, in series [4], the “found active in the treatment” value is recorded as “active”.

In the case of `CCC1(O)CC2CN(CCc3c([nH]c4ccccc34)C(C(=O)OC)(c3cc4c(cc3OC)N(C)C3C(O)(C(=O)NNC(C)CCC(=O)O)C(O)C5(CC)C=CCN6CCC43C65)C2)C1` (stereo not shown) [Example 11, 4-Desacetyl VLB C-3 N^2-(3-carboxy-1-methylpropyl)carboxhydrazide sulfate salt], the IC50 in series [1] was 0.1 mg/L.

For the compound `CC[C@]12CN3CCc4c([nH]c5ccccc45)[C@@](C(=O)OC)(c4cc5c(cc4OC)N(C)[C@H]4[C@@](O)(C(=O)OC)[C@H](OC(C)=O)[C@]6(CC)C=CCN7CC[C@]54[C@@H]76)C[C@H](C3)[C@H]1O2` [leurosine], the “found active in the treatment” value in series [4] is “active”.

On to `CC(=O)CCCC(=O)NCCC(=O)O` [6-[(2-Carboxyethyl)amino]-2,6-dioxohexane], for which the pKa in “pKa” (setting [8]) is 7.1.

On to `CCC1(O)CC2CN(CCc3c([nH]c4ccccc34)C(C(=O)OC)(c3cc4c(cc3OC)N(C)C3C(O)(C(=O)OC)CC5(CC)C=CCN6CCC43C65)C2)C1` (stereo not shown) [4-desacetoxyvinblastine], for which the “found active in the treatment” value in series [4] is reported as “active”.

On to `CCC1(O)CC2CN(CCc3c([nH]c4ccccc34)C(C(=O)OC)(c3cc4c(cc3OC)N(C)C3C(O)(C(=O)NN=C(C)CCCC(=O)NCCC(=O)O)C(O)C5(CC)C=CCN6CCC43C65)C2)C1` (stereo not shown) [Example 6, 4-Desacetyl VLB C-3 N^2-(5-[(2-carboxyethyl)amino]-1-methyl-5-oxopentylidene)carboxhydrazide], for which the pKa in the series “pKa” (setting [6]) is 5.1; in the series “pKa” (setting [5]) it was 6.6; in the series “pKa” (setting [7]) it was 7.3.

Turning to `CCC1(O)CC2CN(CCc3c([nH]c4ccccc34)C(C(=O)OC)(c3cc4c(cc3OC)N(C)C3C(O)(C(=O)NNC(C)CCCC(=O)NCCC(=O)O)C(O)C5(CC)C=CCN6CCC43C65)C2)C1` (stereo not shown) [Example 14, 4-Desacetyl VLB C-3 N^2-(5-[(2-carboxyethyl)amino]-1-methyl-5-oxopentyl)carboxhydrazide], the pKa in “pKa” (setting [6]) amounted to 5.7; in “pKa” (setting [5]) it was 6.7; in the series “pKa” (setting [7]), 7.9.

Turning to `CCC1(O)CC2CN(CCc3c([nH]c4ccccc34)C(C(=O)OC)(c3cc4c(cc3OC)N(C)C3C(O)(C(=O)NNC(C)CCCC(=O)NCCC(=O)O)C(O)C5(CC)C=CCN6CCC43C65)C2)C1` (stereo not shown) [Example 15, 4-Desacetyl VLB C-3 N^2-(5-[(2-carboxyethyl)amino]1-methyl-5-oxopentyl)carboxhydrazide sulfate salt], in series [1], the IC50 was 0.046 mg/L.

Take `CC[C@]1(O)C[C@H]2CN(CCc3c([nH]c4ccccc34)[C@@](C(=O)OC)(c3cc4c(cc3OC)N(C=O)[C@H]3[C@@](O)(C(=O)OC)[C@H](OC(C)=O)[C@]5(CC)C=CCN6CC[C@]43[C@@H]65)C2)C1` [vincristine, leurocristine]: the “found active in the treatment” value in series [4] was “active”.

Turning to `CCC1(O)CC2CN(CCc3c([nH]c4ccccc34)C(C(=O)OC)(c3cc4c(cc3OC)N(C)C3C(O)(C(=O)NNC(C)CCC(=O)O)C(O)C5(CC)C=CCN6CCC43C65)C2)C1` (stereo not shown) [Example 10, 4-Desacetyl VLB C-3 N^2-(3-carboxy-1-methylpropyl)carboxhydrazide], in “pKa”, the “pKa (first value)” value was determined as 5.3, the “pKa (second value)” value is 6.9 and the “pKa (third value)” value came out at 7.9.

With `CCC1(O)CC2CN(CCc3c([nH]c4ccccc34)C(C(=O)OC)(c3cc4c(cc3OC)N(C)C3C(O)(C(=O)NN=C(C)CCCC(=O)NCCC(=O)O)C(O)C5(CC)C=CCN6CCC43C65)C2)C1` (stereo not shown) [Example 7, 4-Desacetyl VLB C-3 N^2-(5-[(2-carboxyethyl)amino]-1-methyl-5-oxopentylidene)carboxhydrazide sulfate salt], the IC50 in series [1] came out at 0.095 mg/L.

Regarding `CCC1(O)CC2CN(CCc3c([nH]c4ccccc34)C(C(=O)OC)(c3cc4c(cc3OC)N(C)C3C(O)(C(=O)NNC(C)CCCCC(=O)O)C(O)C5(CC)C=CCN6CCC43C65)C2)C1` (stereo not shown) [Example 13, 4-Desacetyl VLB C-3 N^2-(5-carboxy-1-methylpentyl)carboxhydrazide sulfate salt], the IC50 in series [1] amounted to 0.4 mg/L.

Turning to `CCC1(O)CN2CCc3c([nH]c4ccccc34)C(C(=O)OC)(c3cc4c(cc3OC)N(C)C3C(O)(C(=O)OC)C(OC(C)=O)C5(CC)C=CCN6CCC43C65)CC(O)(C2)C1` (stereo not shown) [leurocolombine], the “found active in the treatment” value in series [4] was “active”.
